ChEMBL document CHEMBL1926563, “Synthesis, antimicrobial, antimycobacterial and structure-activity relationship of substituted pyrazolo-, isoxazolo-, pyrimido- and mercaptopyrimidocyclohepta[b]indoles” (2012)
≈ marks a conversion by molar mass, not a printed value. Calls of active or inactive are those of the source. No cut-off for these calls is given here.

Legend:
Klebsiella pneumoniae [1] = assay: Antibacterial activity against Klebsiella pneumoniae NCIM 2957 after 24 hrs by disk diffusion method; assay type: functional; settings: NCIM 2957, 24 h
Proteus vulgaris [2] = assay: Antibacterial activity against Proteus vulgaris NCIM 2027 after 24 hrs by disk diffusion method; assay type: functional; settings: NCIM 2027, 24 h
Fusarium solani [3] = assay: Antifungal activity against Fusarium solani NCIM 1330 after 48 hrs by disk diffusion method; assay type: functional; settings: NCIM 1330, 48 h
Curvularia lunata [4] = assay: Antifungal activity against Curvularia lunata NCIM 716 after 48 hrs by disk diffusion method; assay type: functional; settings: NCIM 716, 48 h
Aspergillus niger [5] = assay: Antifungal activity against Aspergillus niger NCIM 596 after 48 hrs by disk diffusion method; assay type: functional; settings: NCIM 596, 48 h
[6] = tested on: Mycobacterium tuberculosis; assay: Antimycobacterial activity against Mycobacterium tuberculosis H37Rv after 7 days by resazurin microtiter plate assay; assay type: functional; settings: 168 h
Staphylococcus aureus [7] = assay: Antibacterial activity against Staphylococcus aureus NCIM 5021 assessed as zone of inhibition at 100 ug/disc after 24 hrs by disk diffusion method; assay type: functional; settings: NCIM 5021, 24 h, read-out: DIZ
Staphylococcus aureus [8] = assay: Antibacterial activity against Staphylococcus aureus NCIM 5021 assessed as zone of inhibition at 200 ug/disc after 24 hrs by disk diffusion method; assay type: functional; settings: NCIM 5021, 24 h, read-out: DIZ
Bacillus subtilis [9] = assay: Antibacterial activity against Bacillus subtilis NCIM 2063 assessed as zone of inhibition at 100 ug/disc after 24 hrs by disk diffusion method; assay type: functional; settings: NCIM 2063, 24 h, read-out: DIZ
Bacillus subtilis [10] = assay: Antibacterial activity against Bacillus subtilis NCIM 2063 assessed as zone of inhibition at 200 ug/disc after 24 hrs by disk diffusion method; assay type: functional; settings: NCIM 2063, 24 h, read-out: DIZ
Klebsiella pneumoniae [11] = assay: Antibacterial activity against Klebsiella pneumoniae NCIM 2957 assessed as zone of inhibition at 100 ug/disc after 24 hrs by disk diffusion method; assay type: functional; settings: NCIM 2957, 24 h, read-out: DIZ
Klebsiella pneumoniae [12] = assay: Antibacterial activity against Klebsiella pneumoniae NCIM 2957 assessed as zone of inhibition at 200 ug/disc after 24 hrs by disk diffusion method; assay type: functional; settings: NCIM 2957, 24 h, read-out: DIZ
Proteus vulgaris [13] = assay: Antibacterial activity against Proteus vulgaris NCIM 2027 assessed as zone of inhibition at 100 ug/disc after 24 hrs by disk diffusion method; assay type: functional; settings: NCIM 2027, 24 h, read-out: DIZ
Proteus vulgaris [14] = assay: Antibacterial activity against Proteus vulgaris NCIM 2027 assessed as zone of inhibition at 200 ug/disc after 24 hrs by disk diffusion method; assay type: functional; settings: NCIM 2027, 24 h, read-out: DIZ
Fusarium solani [15] = assay: Antifungal activity against Fusarium solani NCIM 1330 assessed as zone of inhibition at 100 ug/disc after 48 hrs by disk diffusion method; assay type: functional; settings: NCIM 1330, 48 h, read-out: DIZ
Fusarium solani [16] = assay: Antifungal activity against Fusarium solani NCIM 1330 assessed as zone of inhibition at 200 ug/disc after 48 hrs by disk diffusion method; assay type: functional; settings: NCIM 1330, 48 h, read-out: DIZ
Curvularia lunata [17] = assay: Antifungal activity against Curvularia lunata NCIM 716 assessed as zone of inhibition at 100 ug/disc after 48 hrs by disk diffusion method; assay type: functional; settings: NCIM 716, 48 h, read-out: DIZ
Curvularia lunata [18] = assay: Antifungal activity against Curvularia lunata NCIM 716 assessed as zone of inhibition at 200 ug/disc after 48 hrs by disk diffusion method; assay type: functional; settings: NCIM 716, 48 h, read-out: DIZ
Aspergillus niger [19] = assay: Antifungal activity against Aspergillus niger NCIM 596 assessed as zone of inhibition at 100 ug/disc after 48 hrs by disk diffusion method; assay type: functional; settings: NCIM 596, 48 h, read-out: DIZ
Aspergillus niger [20] = assay: Antifungal activity against Aspergillus niger NCIM 596 assessed as zone of inhibition at 200 ug/disc after 48 hrs by disk diffusion method; assay type: functional; settings: NCIM 596, 48 h, read-out: DIZ
Staphylococcus aureus [21] = assay: Antibacterial activity against Staphylococcus aureus NCIM 5021 after 24 hrs by disk diffusion method; assay type: functional; settings: NCIM 5021, 24 h
Bacillus subtilis [22] = assay: Antibacterial activity against Bacillus subtilis NCIM 2063 after 24 hrs by disk diffusion method; assay type: functional; settings: NCIM 2063, 24 h
[23] = tested on: Mycobacterium tuberculosis; assay: Antimycobacterial activity against Mycobacterium tuberculosis H37Rv at 1.5 to 50 ug/ml after 7 days by resazurin microtiter plate assay; assay type: functional, organism-based

Structure (SMILES) | MIC (Klebsiella pneumoniae [1]) | MIC (Proteus vulgaris [2]) | MIC (Fusarium solani [3]) | MIC (Curvularia lunata [4]) | MIC (Aspergillus niger [5]) | zone of inhibition at 100 µg/disc (Staphylococcus aureus [7]) | zone of inhibition at 200 µg/disc (Staphylococcus aureus [8]) | zone of inhibition at 100 µg/disc (Bacillus subtilis [9]) | zone of inhibition at 200 µg/disc (Bacillus subtilis [10]) | zone of inhibition at 100 µg/disc (Klebsiella pneumoniae [11]) | zone of inhibition at 200 µg/disc (Klebsiella pneumoniae [12]) | zone of inhibition at 100 µg/disc (Proteus vulgaris [13]) | zone of inhibition at 200 µg/disc (Proteus vulgaris [14]) | zone of inhibition at 100 µg/disc (Fusarium solani [15]) | zone of inhibition at 200 µg/disc (Fusarium solani [16]) | zone of inhibition at 100 µg/disc (Curvularia lunata [17]) | zone of inhibition at 200 µg/disc (Curvularia lunata [18]) | zone of inhibition at 100 µg/disc (Aspergillus niger [19]) | zone of inhibition at 200 µg/disc (Aspergillus niger [20]) | MIC [23] | further results
Clc1ccc2[nH]c3c(c2c1)CCCc1conc1-3 | 100 µg/mL (≈ 387 µM) | 200 µg/mL (≈ 773 µM) | 100 µg/mL (≈ 387 µM) | 100 µg/mL (≈ 387 µM) | 100 µg/mL (≈ 387 µM) | 32 mm | 33 mm | 31 mm | 34 mm | 26 mm | 29 mm | 28 mm | 30 mm | 33 mm | 35 mm | 31 mm | 33 mm | 29 mm | 32 mm | – | MIC [6]: 3.12 µg/mL (≈ 12.1 µM); MIC (Staphylococcus aureus [21]): 50 µg/mL (≈ 193 µM); MIC (Bacillus subtilis [22]): 50 µg/mL (≈ 193 µM)
Cc1ccc2[nH]c3c(c2c1)CCCc1cnn(-c2ccccc2)c1-3 | – | – | – | – | – | 27 mm | 30 mm | 29 mm | 31 mm | 26 mm | 28 mm | 21 mm | 23 mm | 30 mm | 34 mm | 31 mm | 31 mm | 29 mm | 30 mm | inactive | –
Sc1ncc2c(n1)-c1[nH]c3ccc(Cl)cc3c1CCC2 | 100 µg/mL (≈ 331 µM) | 100 µg/mL (≈ 331 µM) | 100 µg/mL (≈ 331 µM) | 50 µg/mL (≈ 166 µM) | 50 µg/mL (≈ 166 µM) | 16 mm | 18 mm | 15 mm | 17 mm | 12 mm | 14 mm | 11 mm | 13 mm | 16 mm | 19 mm | 17 mm | 21 mm | 15 mm | 17 mm | – | MIC [6]: 25 µg/mL (≈ 82.8 µM); MIC (Staphylococcus aureus [21]): 50 µg/mL (≈ 166 µM); MIC (Bacillus subtilis [22]): 50 µg/mL (≈ 166 µM)
O=C(N[C@H](CO)[C@H](O)c1ccc([N+](=O)[O-])cc1)C(Cl)Cl [CHLORAMPHENICOL] | 12.5 µg/mL (≈ 38.7 µM) | 12.5 µg/mL (≈ 38.7 µM) | – | – | – | 35 mm | 41 mm | 38 mm | 43 mm | 37 mm | 42 mm | 42 mm | 44 mm | – | – | – | – | – | – | – | MIC (Staphylococcus aureus [21]): 6.25 µg/mL (≈ 19.3 µM); MIC (Bacillus subtilis [22]): 6.25 µg/mL (≈ 19.3 µM)
CC(=O)N1CCN(c2ccc(OCC3COC(Cn4ccnc4)(c4ccc(Cl)cc4Cl)O3)cc2)CC1 (stereo not given) [KETOCONAZOLE] | – | – | 12.5 µg/mL (≈ 23.5 µM) | 6.25 µg/mL (≈ 11.8 µM) | 6.25 µg/mL (≈ 11.8 µM) | – | – | – | – | – | – | – | – | 36 mm | 40 mm | 40 mm | 43 mm | 35 mm | 38 mm | – | –
c1ccc(-n2ncc3c2-c2[nH]c4ccccc4c2CCC3)cc1 | – | – | – | – | – | 25 mm | 27 mm | 24 mm | 26 mm | 21 mm | 24 mm | 20 mm | 23 mm | 28 mm | 33 mm | 29 mm | 31 mm | 26 mm | 30 mm | inactive | –
c1ccc2c3c([nH]c2c1)-c1nocc1CCC3 | – | – | – | – | – | 26 mm | 27 mm | 26 mm | 29 mm | 25 mm | 27 mm | 24 mm | 25 mm | 28 mm | 31 mm | 28 mm | 30 mm | 26 mm | 29 mm | inactive | –
c1ccc2c3c([nH]c2c1)-c1n[nH]cc1CCC3 | – | – | – | – | – | 27 mm | 29 mm | 26 mm | 28 mm | 23 mm | 26 mm | 22 mm | 25 mm | 30 mm | 35 mm | 31 mm | 33 mm | 28 mm | 31 mm | inactive | –
